Literature values in patent publication US20250356984A1 (priority 2022, published 2025).

Conditions: in vivo

## CC(C)c1cccc(C(C)C)c1O [propofol]
  time until target blood concentration is achieved: under a minute
